Patent US8673908B2, “Kynurenine production inhibitor” (Kyowa Hakko Kirin Co., Ltd., priority 2008, dated 2014)

Tested on: kynurenine production in IFN-γ-treated KATO-III cells
Assay: Inhibitory activity on kynurenine production (Test Example 1)
Format: cell-based
Conditions: Homo sapiens, IFN-γ treatment, culture for 96 hours, read-out: IC50 value, inhibition of kynurenine production
Procedure: This assay was performed according to a method modified from the method described in the Journal of Biological Chemistry (J. Biol. Chem.), vol. 263, pp. 2041-2048 (1988). Culture of KATO-III derived from human gastric cancer cells was performed by use of RPMI 1640 (GIBCO, 11875) supplemented with 10 vol % FBS (GIBCO, 10091-148, lot. 665285). 1 μL of a DMSO solution of the test substance was diluted with 199 μL of the culture medium, and the diluted solution was added to wells of a 384 well plate (10 μL/well). Then, IFN-γ (Sigma, 1-3265) was added to the culture medium so that the concentration of IFN-γ was 31.25 ng/mL, and the KATO-III cells were suspended at 50,000 cells/ml, in the culture medium. 40 μL of the suspension was added to each well (2,000 cells/well), and culture of the KATO-III cells was performed at 37° C. under a 5% CO2 atmosphere for 96 hours. The final concentration of DMSO was limited to 0.1 vol % or less so that DMSO itself might not affect the kynurenine concentration measured by this assay. After the culture, 10 μL of a 30 w/v % aqueous trichloroacetic acid solution was added to each well, and incubation was performed at 65° C. for 30 minutes. The plate was centrifuged at 2,500×g for 5 minutes, and then 15 μL of the supernatant in each well was transferred into another 384 well plate. To each of the transferred supernatants, 15 μL of a 2 w/v % solution of p-dimethylaminobenzaldehyde in acetic acid was added, incubation was performed at 65° C. for 20 minutes, and then the absorbance at 480 nm was measured.
[formula] Sample: the absorbance value of the well to which a DMSO solution containing the test substance was added and in which cells were treated with IFN-γ. Blank: the absorbance value of the well to which only DMSO, not the test substance was added and in which cells were treated with IFN-γ. Control: the absorbance value of the well to which only DMSO, not the test substance was added and in which cells were not treated with IFN-γ.
In this assay, expression of IDO in KATO-III cells is induced by IFN-γ treatment and then kynurenine in the culture medium is quantified. It is known that the kynurenine concentration in a culture medium increases in proportion to the enzymatic activity of intracellular IDO (for example, the Journal of Biological Chemistry (J. Biol. Chem.), vol. 263, pp. 2041-2048 (1988)). […] It is known that kynurenine production is inhibited by IDO inhibitors (for example, the Journal of Clinical Investigation (J. Clin. Invest.), vol. 117, No. 5, pp. 1147-1154 […]), and thus it is expected that Compound (I) also has an inhibitory effect on IDO.

Row | Compound | IC50
1 | COc1ccc(C(Oc2nc3ccccc3nc2NS(=O)(=O)c2ccccc2Cl)C(F)(F)F)cn1 (stereo not drawn) [Compound 64, 2-chloro-N-{3-[2,2,2-trifluoro-1-(6-methoxypyridin-3-yl)-ethoxy]quinoxalin-2-yl}benzenesulfonamide] | < 1000 nM
2 | O=S(=O)(Nc1nc2ccccc2nc1OC(c1cnc(-c2ccccc2)s1)C(F)(F)F)c1ccccc1Cl (stereo not drawn) [Compound 134, 2-chloro-N-{3-[2,2,2-trifluoro-1-(2-phenylthiazol-5-yl)-ethoxy]quinoxalin-2-yl}benzenesulfonamide] | < 1000 nM
3 | Cc1cc2nc(NS(=O)(=O)c3ccccc3Cl)c(OC(c3cccnc3)C(F)(F)F)nc2cc1C (stereo not drawn) [Compound 260, 2-chloro-N-{6,7-dimethyl-3-[2,2,2-trifluoro-1-(pyridin-3-yl)ethoxy]quinoxalin-2-yl}benzenesulfonamide] | 1000 to 10000 nM
4 | O=S(=O)(Nc1nc2ccccc2nc1OC(c1cccnc1)C(F)(F)F)C1CCCCC1 (stereo not drawn) [Compound 183, N-{3-[2,2,2-trifluoro-1-(pyridin-3-yl)ethoxy]quinoxalin-2-yl}cyclohexanesulfonamide] | < 1000 nM
5 | O=S(=O)(Nc1nc2ccccc2nc1OC(c1cccnc1)C(F)(F)F)c1ccc(Cl)cc1 (stereo not drawn) [Compound 182, 4-chloro-N-{3-[2,2,2-trifluoro-1-(pyridin-3-yl)ethoxy]-quinoxalin-2-yl}benzenesulfonamide] | < 1000 nM
6 | COCCCNS(=O)(=O)Nc1nc2ccccc2nc1OC(c1cccnc1)C(F)(F)F (stereo not drawn) [Compound 206, N-{3-[2,2,2-trifluoro-1-(pyridin-3-yl)ethoxy]quinoxalin-2-yl}-N′-(3-methoxypropyl)-sulfuric diamide] | < 1000 nM
7 | O=S(=O)(Nc1nc2ccccc2nc1OC(c1cc2ccccc2o1)C(F)(F)F)c1ccccc1Cl (stereo not drawn) [Compound 104, 2-chloro-N-{3-[2,2,2-trifluoro-1-(benzofuran-2-yl)ethoxy]-quinoxalin-2-yl}benzenesulfonamide] | < 1000 nM
8 | COCCS(=O)(=O)Nc1nc2ccccc2nc1OC(c1cccnc1)C(F)(F)F (stereo not drawn) [Compound 300, 2-methoxy-N-{3-[2,2,2-trifluoro-1-(pyridin-3-yl)ethoxy]-quinoxalin-2-yl}ethanesulfonamide] | < 1000 nM
9 | CCCNS(=O)(=O)Nc1nc2ccccc2nc1OC(c1ccc(C)nc1)C(F)(F)F (stereo not drawn) [Compound 280, N-{3-[2,2,2-trifluoro-1-(6-methylpyridin-3-yl)ethoxy]-quinoxalin-2-yl}-N′-propyl-sulfuric diamide] | < 1000 nM
10 | O=S(=O)(Nc1nc2ccccc2nc1OCc1cccc(C(F)(F)F)c1)c1cccc(Cl)c1Cl [Compound 18, 2,3-dichloro-N-{3-[(3-trifluoromethylphenyl)methoxy]-quinoxalin-2-yl}benzenesulfonamide] | < 1000 nM
11 | CCCS(=O)(=O)Nc1nc2ccccc2nc1OC(c1cncs1)C(F)(F)F (stereo not drawn) [Compound 276, N-{3-[2,2,2-trifluoro-1-(thiazol-5-yl)ethoxy]quinoxalin-2-yl}propane-1-sulfonamide] | < 1000 nM
12 | O=S(=O)(CC(F)(F)F)Nc1nc2ccccc2nc1OC(c1cccnc1)C(F)(F)F (stereo not drawn) [Compound 193, 2,2,2-trifluoro-N-{3-[2,2,2-trifluoro-1-(pyridin-3-yl)-ethoxy]quinoxalin-2-yl}ethanesulfonamide] | < 1000 nM
13 | O=S(=O)(Nc1nc2ccccc2nc1OC(c1cccnc1)C(F)(F)F)N1CCOCC1 (stereo not drawn) [Compound 188, N-{3-[2,2,2-trifluoro-1-(pyridin-3-yl)ethoxy]quinoxalin-2-yl}morpholine-4-sulfonamide] | < 1000 nM
14 | CC(Sc1nc2ccccc2nc1NS(=O)(=O)c1ccccc1Cl)c1ccccc1 (stereo not drawn) [Compound 224, 2-chloro-N-[3-(1-phenylethylthio)quinoxalin-2-yl]benzenesulfonamide] | < 1000 nM
15 | O=S(=O)(CC1CC1)Nc1nc2ccccc2nc1OC(c1cccnc1)C(F)(F)F (stereo not drawn) [Compound 303, 1-cyclopropyl-N-{3-[2,2,2-trifluoro-1-(pyridin-3-yl)-ethoxy]quinoxalin-2-yl}methanesulfonamide] | < 1000 nM
